Legend:
[1] = target: T1, recombinant N-terminal PMS2 (residues 1-365) (Homo sapiens, UniProt P54278); assay: Fluorescence Polarisation Assay for PMS2; type: binding; settings: fluorescence polarisation probe displacement; 10 nM N-terminal PMS2, 5 nM probe compound; read-out: PMS2 IC50
T1 construct: recombinant N-terminal PMS2 (residues 1-365)
T1 sequence (P54278 1-365): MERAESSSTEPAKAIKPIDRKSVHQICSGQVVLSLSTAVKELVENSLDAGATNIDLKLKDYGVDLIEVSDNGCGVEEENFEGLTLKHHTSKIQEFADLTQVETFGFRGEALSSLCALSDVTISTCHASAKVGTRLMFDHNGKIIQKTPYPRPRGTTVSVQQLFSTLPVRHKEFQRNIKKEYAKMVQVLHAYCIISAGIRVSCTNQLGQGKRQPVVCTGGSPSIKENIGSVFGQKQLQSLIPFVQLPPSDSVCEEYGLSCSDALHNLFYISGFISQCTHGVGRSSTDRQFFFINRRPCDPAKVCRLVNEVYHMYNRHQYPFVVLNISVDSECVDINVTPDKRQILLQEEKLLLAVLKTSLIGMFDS
Procedure, shortened: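 Competition fluorescence polarisation with 10 nM N-terminal PMS2 and 5 nM fluorescent probe (final), read after 1 h at room temperature following 30 min compound pre-incubation. Data normalised to no-inhibitor and no-enzyme controls; single-point screening or serial dilutions for potency.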

[2] = target: T2, recombinant N-terminal MLH1 (residues 15-340) (Homo sapiens, UniProt P40692); assay: Fluorescence Polarisation Assay for MLH1; type: binding; settings: fluorescence polarisation probe displacement; 100 nM N-terminal MLH1, 5 nM probe compound
T2 construct: recombinant N-terminal MLH1 (residues 15-340)
T2 sequence (P40692 15-340): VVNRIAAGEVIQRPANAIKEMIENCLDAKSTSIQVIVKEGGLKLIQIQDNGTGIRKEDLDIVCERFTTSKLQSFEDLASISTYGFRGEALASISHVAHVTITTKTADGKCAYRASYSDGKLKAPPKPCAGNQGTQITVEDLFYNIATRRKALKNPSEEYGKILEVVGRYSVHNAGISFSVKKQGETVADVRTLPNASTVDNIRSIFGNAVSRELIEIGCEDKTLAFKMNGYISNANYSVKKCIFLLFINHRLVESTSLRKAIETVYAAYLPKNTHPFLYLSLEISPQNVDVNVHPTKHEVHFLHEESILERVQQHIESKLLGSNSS
Procedure, shortened: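 FP displacement assay: 100 nM MLH1 (residues 15-340) preincubated 30 min at room temperature with compound in 25 mM HEPES pH 7.5, 250 mM NaCl, 10 mM MgCl2, 0.01% Triton X-100, 5 mM DTT, then 5 nM rhodamine-labelled probe added and read immediately. Data normalised to no-inhibitor and no-enzyme controls.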

| Compound | IC50 [1] [µM] | IC50 [2] [µM] |
| --- | --- | --- |
| O=C(c1c(O)cc(O)cc1OCc1ccccc1)N1Cc2cccc(N3CCCC(O)C3)c2C1 (stereo not drawn) [Example 8, (2-(Benzyloxy)-4,6-dihydroxyphenyl)(4-(3-hydroxypiperidin-1-yl)isoindolin-2-yl)methanone] | 1 to 10 | 1 to 10 |
| CNc1cc(OCCOC)cc2c1CN(C(=O)c1c(O)cc(O)cc1OCc1ccccc1)CC2 [Example 128, (2-(Benzyloxy)-4,6-dihydroxyphenyl)(6-(2-methoxyethoxy)-8-(methylamino)-3,4-dihydroisoquinolin-2(1H)-yl)methanone] | 1 to 10 | 1 to 10 |
| CN1CCC(Nc2cccc3c2CN(C(=O)c2c(O)cc(O)cc2OCc2ccccc2)CC3)CC1=O (stereo not drawn) [Example 114, 4-((2-(2-(Benzyloxy)-4,6-dihydroxybenzoyl)-1,2,3,4-tetrahydroisoquinolin-8-yl)amino)-1-methylpiperidin-2-one] | > 10 | 1 to 10 |
| CN1CCC(Oc2cc3c(c(N[C@H]4CCOC4)c2)CN(C(=O)c2c(O)cc(O)cc2OCc2ccccc2)CC3)CC1 [Example 139, (S)-(2-(Benzyloxy)-4,6-dihydroxyphenyl)(6-((1-methylpiperidin-4-yl)oxy)-8-((tetrahydrofuran-3-yl)amino)-3,4-dihydroisoquinolin-2(1H)-yl)methanone] | < 1 | < 1 |
| O=C(c1c(O)cc(O)cc1OCC1CCCCC1)N1Cc2cccc(NC3CCOC3)c2C1 (stereo not drawn) [Example 26, (2-(cyclohexylmethoxy)-4,6-dihydroxyphenyl)(4-((tetrahydrofuran-3-yl)amino)isoindolin-2-yl)methanone] | 1 to 10 | 1 to 10 |
| Cn1cc(Nc2cccc3c2CN(C(=O)c2c(O)cc(O)cc2OCc2ccccc2)CC3)cn1 [Example 117, (2-(Benzyloxy)-4,6-dihydroxyphenyl)(8-((1-methyl-1H-pyrazol-4-yl)amino)-3,4-dihydroisoquinolin-2(1H)-yl)methanone] | 1 to 10 | < 1 |
| O=C(c1c(O)cc(O)cc1OCc1ccccn1)N1CCc2cccc(NC3COC3)c2C1 [Example 57, (2,4-Dihydroxy-6-(pyridin-2-ylmethoxy)phenyl)(8-(oxetan-3-ylamino)-3,4-dihydroisoquinolin-2(1H)-yl)methanone] | > 10 | < 1 |

Results, then the compound that gave them:

| IC50 [1] [µM] | IC50 [2] [µM] | Compound |
| --- | --- | --- |
| < 1 | < 1 | CN(C)Cc1cc2c(c(N[C@H]3CCOC3)c1)CN(C(=O)c1c(O)cc(O)cc1OCc1ccccc1)CC2 [Example 125, (S)-(2-(Benzyloxy)-4,6-dihydroxyphenyl)(6-((dimethylamino)methyl)-8-((tetrahydrofuran-3-yl)amino)-3,4-dihydroisoquinolin-2(1H)-yl)methanone] |
| > 10 | > 10 | O=C(Nc1cccc2c1CN(C(=O)c1c(O)cc(O)cc1OCc1ccccc1)CC2)C1CCOC1 (stereo not drawn) [Example 102, N-(2-(2-(Benzyloxy)-4,6-dihydroxybenzoyl)-1,2,3,4-tetrahydroisoquinolin-8-yl) tetrahydrofuran-3-carboxamide] |
| 1 to 10 | < 1 | O=C(c1c(O)cc(O)cc1OCc1ccccc1)N1CCc2nccc(N[C@H]3CCOC3)c2C1 [Example 63, (S)-(2-(Benzyloxy)-4,6-dihydroxyphenyl)(4-((tetrahydrofuran-3-yl)amino)-7,8-dihydro-1,6-naphthyridin-6(5H)-yl)methanone] |
| 1 to 10 | 1 to 10 | O=C(c1c(O)cc(O)cc1OCc1ccccc1)N1CCc2ccc(F)c(NC3CCOC3)c2C1 (stereo not drawn) [Example 116, (2-(Benzyloxy)-4,6-dihydroxyphenyl)(7-fluoro-8-((tetrahydrofuran-3-yl)amino)-3,4-dihydroisoquinolin-2(1H)-yl)methanone] |
| 1 to 10 | < 1 | O=C(c1c(O)cc(O)cc1OCc1ccccc1)N1Cc2cccc(NC3COC3)c2C1 [Example 7, (2-(Benzyloxy)-4,6-dihydroxyphenyl)(4-(oxetan-3-ylamino)isoindolin-2-yl)methanone] |

From US20240293392A1, “INHIBITOR COMPOUNDS” (NeoPhore Limited, priority 2021, published 2024)
